{"source": "paper PMC5929447", "about": "(Oncotarget, 2018)", "key": {"[1]": {"tested_on": "caspase-3 activity in RS4;11 tumor xenografts", "assay": "Caspase-3 activity in RS4;11 tumor xenografts", "assay_type": "in vivo", "conditions": "16 h post dosing, SCID mice", "procedure": "Body weights were recorded and tumors were measured with digital calipers twice to three times a week. Tumor volume was calculated using the formula: length × width^2/2. Percent changes in body weights was calculated as (BWcurrent - BWinitial)/(BWinitial) × 100. Data is presented as percent body weight change from the day of treatment initiation. When tumors reached approximately 200 mm^3 for efficacy studies or 300 mm^3 for pharmacodynamic studies, mice were randomized. […] Mice were treated via oral gavage at 10 ml/kg with the doses and schedules described in the figure. For pharmacodynamic studies, blood and tumors were removed 16 h post dosing and immediately snap-frozen. Total proteins were extracted from the tumors and caspase-3 activity was assessed in triplicate using CaspACE® Assay System (Promega). Platelet cell counts were determined 16 hours post dosing using Coulter AcT diff (Beckman)."}, "BCL-2": {"biological_target": "BCL-2 (Homo sapiens, UniProt P10415)", "sequence (P10415 whole entry)": "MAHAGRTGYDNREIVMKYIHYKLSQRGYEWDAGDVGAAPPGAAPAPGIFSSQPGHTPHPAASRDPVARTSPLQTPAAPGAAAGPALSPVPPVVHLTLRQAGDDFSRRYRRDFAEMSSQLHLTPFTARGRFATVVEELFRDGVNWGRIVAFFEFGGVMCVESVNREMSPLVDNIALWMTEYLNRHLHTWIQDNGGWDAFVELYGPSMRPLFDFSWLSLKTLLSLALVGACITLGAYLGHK", "assay": "Isothermal titration calorimetry (ITC), BCL-2", "conditions": "binding to BCL-2", "procedure": "(§1) The protein was dialyzed prior to use in 2 L of 25 mM HEPES, 150 mM NaCl, 5% glycerol (v/v), 0.5% MTG (v/v) at pH 7.4 for 3 hours at room temperature. The protein was dialyzed using a 3.5 K MWCO Slide-A-Lyzer™ cassette. The protein solution was recovered, spin-filtered through a […] frit. The filtered protein was quantified by UV absorbance at 280 nm using an extinction coefficient of 36440 M^-1cm^-1. 500 ml of dialysis buffer was retained (remainder used to rinse out SCHOT bottle) and degassed for a minimum of 30 mins under vacuum with constant stirring. […] The solutions were carefully matched to ensure same solvent and buffer conditions were present in both syringe and cell (this is to minimize heat of dilution effects). The final solution was the dialysis buffer plus 1% DMSO and 0.05% P20. The experiment was performed over 13 injections with stirring at 1000 rpm, gain setting low and at 25° C. Pure water was used in the reference cell. The first injection was 0.5 μl with a duration of 1 second with a gap of 150 seconds until the further 12 injections of 3.05 μl with a duration 6.1 seconds and a 240 second interval between injections. Data was analyzed using the vendor supplied software, PEAQ-ITC Analysis Software. The data model used was the single site model. The data shown is the average of 2 or 3 independent experiments."}, "RS4;11 xenograft": {"tested_on": "RS4;11 xenograft", "assay": "RS4;11 xenograft efficacy", "assay_type": "in vivo, mice", "conditions": "for Mean TV change: day 17, mean ± s.e.m.; for % T/C: day 17 post treatment start", "procedure": "Experiments were performed in SCID/beige female mice from Charles River Laboratories, Massachusetts, USA. Animals, approximately 7-8 weeks of age at the start of the treatment were allowed to acclimate in animal facility with access to food and water ad libitum for 3 days prior to manipulation. Animals were handled in accordance with IACUC regulations and guidelines for experiments performed in the USA and with European and French regulation for the protection of vertebrate animals for experiments performed in France. Animal well-being and behavior, including grooming and ambulation were monitored at least once a day. General health of mice was monitored and mortality recorded daily. Any moribund animals were sacrificed. RS4;11 Acute Lymphoblastic Leukemia cell lines was obtained from ATCC. Toledo (Diffuse Large B-Cell Lymphoma) human cell lines were obtained internally through Bioresources and the Novartis-Cancer Cell Line Encyclopedia. Cells were free of Mycoplasma and murine viral contamination in the IMPACT VIII PCR assay panel ([…] laboratories INC, Westbrook, ME, USA). […] Cells were resuspended in a 1:1 mixture of cold DPBS (Dulbecco's Phosphate-Buffered Saline) and Matrigel^TM (Becton-Dickinson #354234) at a concentration of 3 × 10^7 cells/ml for Toledo cells, and of 1 × 10^7 cells/ml for RS4;11 cells. […] Body weights were recorded and tumors were measured with digital calipers twice to three times a week. Tumor volume was calculated using the formula: length × width^2/2. Percent changes in body weights was calculated as (BWcurrent - BWinitial)/(BWinitial) × 100. Data is presented as percent body weight change from the day of treatment initiation. When tumors reached approximately 200 mm^3 for efficacy studies or 300 mm^3 for pharmacodynamic studies, mice were randomized. […] Mice were treated via oral gavage at 10 ml/kg with the doses and schedules described in the figure. […] Regression = 100 × ΔT/Tinitial if ΔT < 0 where: T = mean tumor burden of the drug-treated group on the final day of the study; ΔT = mean tumor burden of the drug-treated group on the final day of the study - mean tumor burden of the drug-treated group on initial day of dosing; Tinitial = mean tumor burden of the drug-treated group on initial day of dosing; C = mean tumor burden of the control group on the final day of the study; and ΔC = mean tumor burden of the control group on the final day of the study - mean tumor burden of the control group on initial day of dosing. If the tumor volume was less than 14 mm^3 for more than 3 consecutive measurements, animals were considered in complete regression (CR)."}, "BCL-XL": {"biological_target": "BCL-XL (Homo sapiens, UniProt Q07817)", "sequence (Q07817 whole entry)": "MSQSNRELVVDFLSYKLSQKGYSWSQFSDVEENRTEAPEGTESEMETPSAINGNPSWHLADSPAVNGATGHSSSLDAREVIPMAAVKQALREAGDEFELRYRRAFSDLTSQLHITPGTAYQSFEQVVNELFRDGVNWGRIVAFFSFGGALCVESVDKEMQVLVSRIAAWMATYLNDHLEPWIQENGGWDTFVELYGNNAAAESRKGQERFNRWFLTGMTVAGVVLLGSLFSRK", "assay": "Isothermal titration calorimetry (ITC), BCL-XL", "assay_type": "binding", "conditions": "25 °C; read-out: ITC_BCL-XL_KD", "procedure": "as §1"}, "[2]": {"tested_on": "control RS4;11 cells (shRNA CT)", "assay": "Viability of RS4;11 cells transduced with shRNA CT (control)", "assay_type": "cell-based", "conditions": "Homo sapiens, 72 h"}, "RS4;11 cells": {"tested_on": "RS4;11 cells", "assay": "Apoptosis hallmarks in RS4;11 cells (annexin V/PI flow cytometry, MSD cleaved caspase-3 and PARP)", "assay_type": "cell-based", "procedure": "Cells were incubated with 200 μl of binding buffer containing AnnexinV-FITC (Invitrogen) and propidium iodide (PI, Sigma) during 15 min at 20° C in the dark. THP-1 cells were incubated with 200 μl of binding buffer containing AnnexinV-APC (BD Biosciences) and DAPI (Sigma). 400 μl of binding buffer was added and samples were kept at 4° C before cytometric analysis. […] Fluorescence was collected at 520 (FITC), 630 nm (PI), 660 nm (APC) and 470 (DAPI). Numbers of apoptotic cells (addition of primary apoptosis, secondary apoptosis and necrosis) was normalized to the total numbers of cells per tubes. page 6: Cleaved PARP and cleaved caspase-3 Cleared lysates (5 μg) were assayed for immunodetection immunodetection by MesoScale Discovery of cleaved PARP and cleaved caspase-3 with MSD (MSD) assay Apoptosis Panel Whole Cell Lysate kit (MSD […]) in 96-well plates according to manufacturer 's instructions, 24 h after seeding, cells were treated with the and analyzed on the Sector Image 2400. Control DMSO indicated compounds for 4 h and harvested in lysis buffer conditions were set to 100% and fold-activation calculated. […] Cleaved caspase-3 (C) and cleaved PARP (D) was measured using MesoScale Discovery Apoptosis panel. […]"}, "[3]": {"conditions": "100 mg/kg oral daily for 7 days"}}}
{"smiles": "O=C(c1cc(-c2cc3c(cc2C(=O)N2Cc4ccccc4C[C@H]2CN2CCOCC2)OCO3)n2c1CCCC2)N(c1ccccc1)c1ccc(O)cc1", "note": "[S55746]", "values": [{"measurement": "caspase-3 activity in tumor, times higher than in vehicle-treated animals", "setting": "[1]; 25 mg/kg single oral gavage", "value": "about 11 times"}, {"measurement": "caspase-3 activity in tumor, times higher than in vehicle-treated animals", "setting": "[1]; 100 mg/kg single oral gavage", "value": "~28", "unit": "times"}, {"measurement": "N (sites), stoichiometry", "setting": "BCL-2", "value": 1.1, "unit": "sites"}, {"measurement": "∆H (enthalpy delta)", "setting": "BCL-2", "value": "–13.5 kcal/mol"}, {"measurement": "Mean TV change", "setting": "RS4;11 xenograft; 25 mg/kg oral daily for 7 days", "value": "782.38 ± 107.32", "unit": "mm3"}, {"measurement": "% T/C", "setting": "RS4;11 xenograft; 25 mg/kg oral daily for 7 days", "value": 67.1, "unit": "% T/C"}, {"measurement": "Mean TV change", "setting": "RS4;11 xenograft; 50 mg/kg oral daily for 7 days", "value": "190.50 ± 76.72", "unit": "mm3"}, {"measurement": "% T/C", "setting": "RS4;11 xenograft; 50 mg/kg oral daily for 7 days", "value": 16.3, "unit": "% T/C"}, {"measurement": "complete regression", "setting": "RS4;11 xenograft; [3]", "value": "complete regression observed in all animals"}, {"measurement": "Mean TV change", "setting": "RS4;11 xenograft; [3]", "value": "–98.13 ± 11.62 mm3"}, {"measurement": "Kd", "setting": "BCL-XL", "value": 186, "unit": "nM"}, {"measurement": "IC50", "setting": "[2]", "value": 57, "unit": "nM"}, {"measurement": "apoptosis induction, externalization of phosphatidylserine (PS+ cells)", "setting": "RS4;11 cells; 2 h", "value": "rapidly induced apoptosis in a concentration dependent-manner"}, {"measurement": "cleavage of caspase-3 and PARP", "setting": "RS4;11 cells; MSD assay", "value": "observed upon treatment by S55746 in a concentration dependent manner"}]}
